Experimental data: ChEMBL document CHEMBL3885861, “Open TG-GATES”

Species on record: Rattus norvegicus
Assay: Open TG-GATES - Regimen: Single
Type: toxicity, organism-based, Sprague-Dawley
Set-up: regimen Single, gender Male, age 6 weeks
Conditions: in vivo, po, 0 mg/kg, route gavage, dose level Control; for APTT / Bas / Eos / Fbg / Hb / Ht / Lym / MCH / MCHC / MCV / Mono / Neu / PT / Plat / RBC / Ret / WBC: tissue Blood; for KIDNEY_L / KIDNEY_R / KIDNEY_TOTAL: tissue Kidney; for LIVER: tissue Liver; for A/G / ALP / ALT / AST / BUN / CRE / Ca / Cl / DBIL / GLC / IP / K / LDH / Na / PL / RALB / TBIL / TC / TG / TP / gamma-GTP: tissue Plasma

`O=C(OC[C@H]1O[C@@H](OC(=O)c2cc(O)c(O)c(OC(=O)c3cc(O)c(O)c(O)c3)c2)[C@H](OC(=O)c2cc(O)c(O)c(OC(=O)c3cc(O)c(O)c(O)c3)c2)[C@@H](OC(=O)c2cc(O)c(O)c(OC(=O)c3cc(O)c(O)c(O)c3)c2)[C@@H]1OC(=O)c1cc(O)c(O)c(OC(=O)c2cc(O)c(O)c(O)c2)c1)c1cc(O)c(O)c(OC(=O)c2cc(O)c(O)c(O)c2)c1` [TANNIC ACID] gave a TERMINAL_BW (3 h) of 189.9 g, an APTT (3 h) of 16.1 s and a Bas (3 h) of 0%. It also gave an Eos (3 h) of 0.6%, a Fbg (3 h) of 216.2 mg/dL and a Hb (3 h) of 12.9 g/dL. For the same compound, the Ht (3 h) was 38.5%, the Lym (3 h) was 79.4% and the MCH (3 h) was 22.6 pg. It also gave an MCHC (3 h) of 33.6%, an MCV (3 h) of 67.3 fL and a Mono (3 h) of 5%. It also gave a Neu (3 h) of 15.2%, a PT (3 h) of 11.7 s and a Plat (3 h) of 106.7 x10_4/uL. The RBC (3 h) was 573 x10_4/ul, the Ret (3 h) was 10.3% and the WBC (3 h) was 111 x10_2/uL. The KIDNEY_L (3 h) was 0.9 g, the KIDNEY_R (3 h) was 0.9 g and the KIDNEY_TOTAL (3 h) was 1.8 g. It also gave an LIVER (3 h) of 9.5 g, an A/G (3 h) of 2.1 and an ALP (3 h) of 747.6 IU/L. It also gave an ALT (3 h) of 34.4 IU/L, an AST (3 h) of 68 IU/L and a BUN (3 h) of 17 mg/dL. It also gave a CRE (3 h) of 0.4 mg/dL, a Ca (3 h) of 11 mg/dL and a Cl (3 h) of 103.2 meq/L. For the same compound, the DBIL (3 h) was 0.016 mg/dL, the GLC (3 h) was 194.4 mg/dL and the IP (3 h) was 10.3 mg/dL. The K (3 h) was 4.8 meq/L, the LDH (3 h) was 74.4 IU/L and the Na (3 h) was 139.4 meq/L. For the same compound, the PL (3 h) was 141.4 mg/dL, the RALB (3 h) was 3.6 g/dL and the TBIL (3 h) was 0.5 mg/dL. The TC (3 h) was 74.8 mg/dL, the TG (3 h) was 70.6 mg/dL and the TP (3 h) was 5.4 g/dL. For the same compound, the gamma-GTP (3 h) was 1.4 IU/L, the TERMINAL_BW (6 h) was 186.3 g and the APTT (6 h) was 15.9 s. The Bas (6 h) was 0%, the Eos (6 h) was 0.8% and the Fbg (6 h) was 227 mg/dL. The Hb (6 h) was 13.1 g/dL, the Ht (6 h) was 39.1% and the Lym (6 h) was 75.2%. The MCH (6 h) was 22.1 pg, the MCHC (6 h) was 33.6% and the MCV (6 h) was 65.6 fL. It also gave a Mono (6 h) of 7.8%, a Neu (6 h) of 16.4% and a PT (6 h) of 12.1 s. For the same compound, the Plat (6 h) was 117.4 x10_4/uL, the RBC (6 h) was 596 x10_4/ul and the Ret (6 h) was 10.1%. For the same compound, the WBC (6 h) was 109.6 x10_2/uL, the KIDNEY_L (6 h) was 0.9 g and the KIDNEY_R (6 h) was 0.9 g. For the same compound, the KIDNEY_TOTAL (6 h) was 1.8 g, the LIVER (6 h) was 8.6 g and the A/G (6 h) was 2. For the same compound, the ALP (6 h) was 831.4 IU/L, the ALT (6 h) was 34.4 IU/L and the AST (6 h) was 61.8 IU/L. For the same compound, the BUN (6 h) was 11.2 mg/dL, the CRE (6 h) was 0.5 mg/dL and the Ca (6 h) was 10.8 mg/dL. The Cl (6 h) was 105.2 meq/L, the DBIL (6 h) was 0.028 mg/dL and the GLC (6 h) was 188 mg/dL. For the same compound, the IP (6 h) was 10.1 mg/dL, the K (6 h) was 4.7 meq/L and the LDH (6 h) was 83 IU/L. The Na (6 h) was 139.4 meq/L, the PL (6 h) was 131.8 mg/dL and the RALB (6 h) was 3.6 g/dL. It also gave a TBIL (6 h) of 0.4 mg/dL, a TC (6 h) of 79.2 mg/dL and a TG (6 h) of 40.6 mg/dL. For the same compound, the TP (6 h) was 5.4 g/dL, the gamma-GTP (6 h) was 2.2 IU/L and the TERMINAL_BW (9 h) was 184.6 g. The APTT (9 h) was 16.7 s, the Bas (9 h) was 0% and the Eos (9 h) was 1.2%. It also gave a Fbg (9 h) of 213 mg/dL, a Hb (9 h) of 12.9 g/dL and a Ht (9 h) of 38.4%. For the same compound, the Lym (9 h) was 76.8%, the MCH (9 h) was 22.2 pg and the MCHC (9 h) was 33.6%. For the same compound, the MCV (9 h) was 65.9 fL, the Mono (9 h) was 8% and the Neu (9 h) was 14.4%. For the same compound, the PT (9 h) was 12.1 s, the Plat (9 h) was 123.3 x10_4/uL and the RBC (9 h) was 583.4 x10_4/ul. It also gave a Ret (9 h) of 10.2%, a WBC (9 h) of 92.1 x10_2/uL and a KIDNEY_L (9 h) of 0.9 g. For the same compound, the KIDNEY_R (9 h) was 0.9 g, the KIDNEY_TOTAL (9 h) was 1.7 g and the LIVER (9 h) was 7.7 g. The A/G (9 h) was 1.9, the ALP (9 h) was 669.8 IU/L and the ALT (9 h) was 34.4 IU/L. For the same compound, the AST (9 h) was 60 IU/L, the BUN (9 h) was 12.8 mg/dL and the CRE (9 h) was 0.4 mg/dL. It also gave a Ca (9 h) of 10.5 mg/dL, a Cl (9 h) of 105.4 meq/L and a DBIL (9 h) of 0.062 mg/dL. It also gave a GLC (9 h) of 195.8 mg/dL, an IP (9 h) of 10.8 mg/dL and a K (9 h) of 4.9 meq/L. It also gave an LDH (9 h) of 72.2 IU/L, a Na (9 h) of 137 meq/L and a PL (9 h) of 138.6 mg/dL. The RALB (9 h) was 3.6 g/dL, the TBIL (9 h) was 0.4 mg/dL and the TC (9 h) was 81.4 mg/dL. The TG (9 h) was 35.2 mg/dL, the TP (9 h) was 5.5 g/dL and the gamma-GTP (9 h) was 2.6 IU/L. The TERMINAL_BW (24 h) was 197.9 g, the APTT (24 h) was 16.7 s and the Bas (24 h) was 0%. The Eos (24 h) was 1.2%, the Fbg (24 h) was 218.4 mg/dL and the Hb (24 h) was 12.5 g/dL. For the same compound, the Ht (24 h) was 37.6%, the Lym (24 h) was 79.6% and the MCH (24 h) was 22 pg. For the same compound, the MCHC (24 h) was 33.3%, the MCV (24 h) was 66.1 fL and the Mono (24 h) was 6%. It also gave a Neu (24 h) of 13.6%, a PT (24 h) of 11.8 s and a Plat (24 h) of 110.9 x10_4/uL. It also gave an RBC (24 h) of 568.6 x10_4/ul, a Ret (24 h) of 9.9% and a WBC (24 h) of 98.7 x10_2/uL. For the same compound, the KIDNEY_L (24 h) was 0.9 g, the KIDNEY_R (24 h) was 0.9 g and the KIDNEY_TOTAL (24 h) was 1.8 g. The LIVER (24 h) was 9.4 g, the A/G (24 h) was 2.1 and the ALP (24 h) was 821.8 IU/L. It also gave an ALT (24 h) of 41 IU/L, an AST (24 h) of 66.6 IU/L and a BUN (24 h) of 18.2 mg/dL. It also gave a CRE (24 h) of 0.5 mg/dL, a Ca (24 h) of 10.8 mg/dL and a Cl (24 h) of 103.8 meq/L. For the same compound, the DBIL (24 h) was 0.004 mg/dL, the GLC (24 h) was 190.6 mg/dL and the IP (24 h) was 8.7 mg/dL. For the same compound, the K (24 h) was 4.7 meq/L, the LDH (24 h) was 97 IU/L and the Na (24 h) was 138.2 meq/L. For the same compound, the PL (24 h) was 144.2 mg/dL, the RALB (24 h) was 3.7 g/dL and the TBIL (24 h) was 0.4 mg/dL. The TC (24 h) was 80.6 mg/dL, the TG (24 h) was 77.2 mg/dL and the TP (24 h) was 5.5 g/dL. The gamma-GTP (24 h) was 1.4 IU/L.
